# Data as given in patent publication US20260200982A1, “HER RECEPTOR DERIVED PEPTIDES AND METHODS OF USE THEREOF” (Ramot at Tel-Aviv University Ltd., priority 2022, published 2026).
# The star is where a group is joined. Myristoyl = CCCCCCCCCCCCCC(=O)*
# Columns and labels:
# [1] = test system: DLD-1 cells; experiment: Colony formation assay, DLD-1; type: cell-based, human; conditions: 20 μM, 72 hours, FIG. 12
# Procedure: Colony formation assay—Cells were plated onto 12-well plate (6×10^4 cells/well) and treated with either PBS or myr-NLS at the IC50 concentration for 3 days. Cells were collected and replated in 10-cm plates (at 3 dilutions of 1:10, 1:20 and 1:40). After 7-14 days when visible and yet separated colonies were formed, the cells were fixed with 0.1% acetic acid in PBS, and stained with 0.4% crystal violet in 0.1% acetic acid. Total colonies area was calculated using the ImageJ program.
# In addition, a colony formation assay was conducted to further examine the anti-tumor effect of the myr-NLS (SEQ ID NO: 5), myr-NLS2 (SEQ ID NO: 15) and myr-NLS4 (SEQ ID NO: 17) peptides. To this end, DLD-1 cells were treated or untreated for 72 hours with 20 μM of the myr-peptides. Cells were then seeded at the same dilutions in new plates until colonies were formed.
# [2] = test system: EGFR (ErbB1); experiment: Western blot analysis of dissected Panc-1 tumors, EGFR; type: in vivo, human; conditions: Panc-1 tumor lysates
# Procedure: Pancreatic Tumor Growth in Nude Mice—The study was conducted according to the NIH Guidelines for Use and Care of Laboratory Animals and following the approval by Animal Care Committee of the Tel Aviv University. Nude CD1-Nu mice (25-30 g) housed in barrier facilities on a 12-h light/dark cycle one week prior to the injection of tumor cells (day zero). On day zero, 2×10^6 Panc 1 cells in 0.1 ml of PBS were implanted subcutaneously just above the right femoral joint. Tumor size was measured every 3-4 days. When the tumors were apparently seen and the calculated tumor size was 40 mm^3, the animals were divided randomly into two groups of mice (control vehicle treated and myr-NLS (SEQ ID NO: 5) treated; 8 mice per group). Treatment with the myr-NLS (SEQ ID NO: 5) was performed by intraperitoneal injection of 25 μg in 100 μl PBS (or 100 μl PBS for control mice) every day. Tumors size was measured 3 times a week. At the end of the experiment, the mice were sacrificed, and the tumors were dissected and used for further analysis.
# Western blot analysis—Half of each tumor was homogenized in lysis buffer, using a Potter-Elvehjem manual homogenizer, cleared and kept at −70° C. The lysates (30 μg) were resolved by SDS-polyacrylamide gel electrophoresis (SDS-PAGE) and transferred to nitrocellulose membranes. The membranes were blocked with TBST buffer containing 6% milk and reacted with the indicated primary antibodies followed by second antibodies. Immunoreactive bands were detected with the enhanced chemiluminescence reagent (Luminata Crescendo Western HRP). Densitometric quantification analysis of the resulted images was done using ImageJ program.
# Following, the present inventors examined whether the reduction of the tumor growth rate correlates with alterations expression and activation of the relevant proteins. To this end, lysates were prepared form the dissected tumors for protein levels evaluations. The tumor lysates were processed for western blot analysis (30 μg protein, 10% SDS polyacrylamide gel electrophoresis) and protein levels were determined using the indicated antibodies.
# [3] = test system: EGFR (ErbB1); experiment: Immunoblotting of cell lysates, EGFR phosphorylation; type: cell-based, human; conditions: DLD-1 or Panc-1 cells; 24 hours; 25 μM and 10 μM; FIGS. 13A-B
# Procedure: Lysate preparation and immunoblotting—Cells were seeded at cell densities of 1.5×10^5 (DLD-1), 1.8×10^5 (HCT-116) and 2.5×10^5 (SKBR3) cells/well, treated as indicated and grown for 24 hours. Following, cells were lysed in solubilization buffer; the lysates were cleared by centrifugation and a boiling gel sample buffer was added. Proteins were resolved by SDS-polyacrylamide gel electrophoresis through 10% polyacrylamide gels, and were electrophoretically transferred to nitrocellulose membranes. Membranes were blocked in TBST buffer containing 6% milk, and blotted with primary antibodies. Following, a secondary antibody linked to horseradish peroxidase was added. Immunoreactive bands were detected with the enhanced chemiluminescence reagent Immobilon Crescendo Western HRP substrate (WBLUR0100; Merck Millipore).
# [4] = test system: MIA PaCa-2 pancreatic cancer cells; experiment: Methylene blue viability assay, MIA PaCa-2; type: cell-based, human; conditions: MiaPaCa2; 72 hours; FIGS. 4B and 4C; read-out: IC50 (cell viability)
# Description: (§1) Cell lines—Human breast cancer cell lines SKBR3 [Peles E et al. EMBO J. (1993) 12(3):961-71] and MCF7 [Faigenbloom L et al., Mol Syst Biol. (2015) 11(12):845] and human glioblastoma U87 [Goldberg L et al. Cancer Res. (2006) 66(24):11709-17] cell line, as well as Rat-1 fibroblast cells and H-Ras-transformed Rat-1 cells (EJ cells) [Marom M et al. J Biol Chem. (1995) 270(38):22263-70] and human Panc-1 and MIA PaCa-2 pancreatic cell lines (Rak R et al. Oncoscience. 2014 1(1):39-48; Weisz B et al. Oncogene (1999) 18, 2579±2588) were all grown in Dulbecco's modified Eagle's medium (DMEM; Biological Industries, Beithaemek, Israel). Human colorectal cancer cell lines DLD-1 (ATTC Cat No. CCL-221), HCT-116 (ATTC Cat No. CCL-247) and LNCaP prostate cancer cells were grown in Roswell Park Memorial Institute 1640 (RPMI 1640) medium and McCoy's 5A media, respectively (Sigma-Aldrich). All media were supplemented with antibiotics and 10% heat-inactivated fetal bovine serum (FBS; Gibco). Human breast cell line MCF10A [Bott A et al. Oncotarget. […]
# (§2) Methylene blue viability assay—Cells were plated in 96-wells plates at cell densities of 1.5×10^3 (EJ, DLD-1), 3×10^3 (Rat-1, HCT-116, U87), 5×10^3 (SKBR3, MCF7) and 6×10^3 (MCF10A) cells/well. […] IC-50 values were calculated using a non-linear regression model (logarithmic inhibitor vs. normalized response-variable slope) with the GraphPad Prism 6 software.
# [5] = test system: H-Ras-transformed Rat-1 cells (EJ cells); type: cell-based; conditions: FIG. 4C
# Description: as §1, §2
substance,measurement,setting,value
Myr-RRRHIVRKRTLRRLL-OH (Myristoyl-RRRHIVRKRTLRRLL-OH; SMILES CCCCCCCCCCCCCC(=O)N[C@@H](CCCNC(=N)N)C(=O)N[C@@H](CCCNC(=N)N)C(=O)N[C@@H](CCCNC(=N)N)C(=O)N[C@@H](Cc1c[nH]cn1)C(=O)N[C@H](C(=O)N[C@H](C(=O)N[C@@H](CCCNC(=N)N)C(=O)N[C@@H](CCCCN)C(=O)N[C@@H](CCCNC(=N)N)C(=O)N[C@H](C(=O)N[C@@H](CC(C)C)C(=O)N[C@@H](CCCNC(=N)N)C(=O)N[C@@H](CCCNC(=N)N)C(=O)N[C@@H](CC(C)C)C(=O)N[C@@H](CC(C)C)C(=O)O)[C@@H](C)O)C(C)C)[C@@H](C)CC) [myr-NLS],colony formation (total colonies area),[1],fewer and smaller colonies
same,ratio between EGFR and its phosphorylation state (activation of the EGFR),[2]; FIG. 10C,affected the activation of the EGFR
same,expression levels of EGFR in tumors,[2]; FIGS. 10A-C,reduced
same,levels of phosphorylated EGFR in tumors,[2]; FIGS. 10A-C,reduced
same,levels of phosphorylated EGFR,[3],reduced
same,IC50,[4],3.95 µM
same,viability of Rat-1 fibroblast cells transformed with constitutive Ras (EJ),[5],decreased viability
